Experimental data published in the supplement of paper PMC10307832.

Columns and labels:
Assay in all cases: relative viability (nuclei count vs DMSO), 5 days (fraction); higher = more cells survive
[1] = compound: C1=CC=C2C(=C1)N=C(S2)C(C#N)C3=NC(=NC=C3)NCCC4=CN=CC=C4 + CC(=O)c1c(C)c2cnc(Nc3ccc(N4CCNCC4)cn3)nc2n(C2CCCC2)c1=O [Palbociclib] (partner 0.5 µM)
Outline: (§1)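 Lung cancer cell lines in 1536-well plates were dosed by pin tool the day after seeding, either with one drug alone or with a fixed anchor-drug dose plus five library-drug doses (not always all listed) in √10 steps. After 5 days, cells were fixed and their nuclei stained in one step (final 0.05% Triton X-100, 1% formaldehyde, 1 ug/ml Hoechst), then counted on 4× images. Relative viability is the nuclei count in treated wells divided by that in vehicle wells. Values are medians of duplicate plates.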

NVP-TAE684 + Bortezomib = compound: COc1cc(N2CCC(N3CCN(C)CC3)CC2)ccc1Nc1ncc(Cl)c(Nc2ccccc2S(=O)(=O)C(C)C)n1 [NVP-TAE684] + CC(C)C[C@H](NC(=O)[C@H](Cc1ccccc1)NC(=O)c1cnccn1)B(O)O [Bortezomib] (partner 0.002 µM)
Outline: as §1

NVP-TAE684 + Dasatinib = compound: COc1cc(N2CCC(N3CCN(C)CC3)CC2)ccc1Nc1ncc(Cl)c(Nc2ccccc2S(=O)(=O)C(C)C)n1 [NVP-TAE684] + Cc1nc(Nc2ncc(C(=O)Nc3c(C)cccc3Cl)s2)cc(N2CCN(CCO)CC2)n1 [Dasatinib] (partner 0.075 µM)
Outline: as §1

Vandetanib + Foretinib = compound: COc1cc2/c(=N/c3ccc(Br)cc3F)nc[nH]c2cc1OCC1CCN(C)CC1 [Vandetanib] + COc1cc2c(Oc3ccc(NC(=O)C4(C(=O)Nc5ccc(F)cc5)CC4)cc3F)ccnc2cc1OCCCN1CCOCC1 [Foretinib] (partner 0.25 µM)
Outline: as §1

Cell Line | relative viability ([1]; first compound 0.005 µM) | relative viability ([1]; first compound 0.01581 µM) | relative viability ([1]; first compound 0.05 µM) | relative viability ([1]; first compound 0.1581 µM) | relative viability ([1]; first compound 0.5 µM) | relative viability (NVP-TAE684 + Bortezomib; first compound 0.2 µM) | relative viability (NVP-TAE684 + Bortezomib; first compound 0.6325 µM) | relative viability (NVP-TAE684 + Bortezomib; first compound 2 µM) | relative viability (NVP-TAE684 + Dasatinib; first compound 0.2 µM) | relative viability (NVP-TAE684 + Dasatinib; first compound 0.6325 µM) | relative viability (NVP-TAE684 + Dasatinib; first compound 2 µM) | relative viability (Vandetanib + Foretinib; first compound 0.02 µM) | relative viability (Vandetanib + Foretinib; first compound 0.06325 µM) | relative viability (Vandetanib + Foretinib; first compound 0.2 µM) | relative viability (Vandetanib + Foretinib; first compound 0.6325 µM) | relative viability (Vandetanib + Foretinib; first compound 2 µM)
HCC-44 | 0.957 | 0.958 | 0.964 | 0.967 | 0.835 | 1 | 0.863 | 0.83 | – | – | – | – | – | – | – | –
EKVX | 0.294 | 0.367 | 0.41 | 0.531 | 0.285 | 0.98 | 0.926 | 0.587 | 0.367 | 0.469 | 0.202 | 0.821 | 0.695 | 0.795 | 0.794 | 1.17
NCI-H23 | – | 0.456 | 0.528 | 0.577 | 0.411 | 0.867 | 0.993 | 0.54 | – | 0.638 | 0.249 | 0.917 | 1 | 0.304 | 0.947 | 0.898
NCI-H2347 | 0.455 | 0.45 | 0.484 | 0.447 | 0.444 | 1.41 | 0.822 | 1.02 | 0.501 | 0.307 | 0.293 | 1.01 | – | 0.789 | 1.02 | 0.553
SK-LU-1 | 0.412 | 0.399 | 0.31 | 0.41 | 0.395 | 1.21 | 1.08 | 1.01 | 0.188 | 0.138 | 0.0928 | 0.819 | 0.564 | 0.197 | 0.798 | 0.805
A549 | – | – | – | – | – | – | – | – | – | – | – | 1.05 | 0.961 | 0.992 | 0.987 | 0.854
LU99A | 0.398 | 0.41 | – | 0.47 | 0.39 | 1.29 | 1.1 | 0.653 | 0.475 | 0.392 | 0.179 | 0.842 | 0.757 | 0.878 | 0.783 | 0.823
NCI-H596 | – | – | – | – | – | 1.3 | 0.919 | – | 0.629 | 0.397 | 0.286 | 0.918 | 0.785 | 0.741 | 0.838 | 0.731
A-427 | 0.542 | 0.5 | 0.519 | 0.525 | 0.56 | 1.1 | – | 0.78 | 0.789 | 0.703 | 0.554 | 1.03 | 1.05 | 1.1 | 0.977 | 1.05
SW 900 | 0.441 | 0.496 | 0.412 | 0.586 | 0.458 | – | – | – | 0.739 | 0.414 | 0.397 | 0.927 | 0.779 | 0.143 | 1 | 0.917
COR-L 105 | 0.376 | 0.408 | 0.435 | 0.39 | 0.345 | 0.903 | 0.556 | 0.309 | 0.256 | 0.202 | 0.204 | 0.91 | 1.11 | 0.329 | 0.533 | 0.358
LOU-NH91 | 0.545 | 0.552 | 0.477 | 0.563 | 0.543 | 0.548 | 0.492 | 0.518 | 0.544 | 0.453 | 0.231 | 0.972 | 0.807 | 0.787 | 0.713 | 0.578
COR-L23 | 0.236 | 0.312 | 0.229 | 0.281 | 0.24 | – | 1.04 | 0.616 | 0.366 | 0.301 | 0.117 | 0.968 | 1.01 | 0.942 | 0.923 | 0.995
HCC-15 | 0.701 | 0.771 | 0.734 | 0.74 | 0.627 | 0.916 | 1.07 | 1 | 0.542 | 0.435 | 0.28 | 1.05 | 0.96 | 0.577 | 1.04 | 0.973
LCLC-103H | 0.491 | 0.468 | 0.514 | 0.522 | 0.485 | 1.09 | 1.11 | – | 0.568 | 0.464 | 0.168 | 0.864 | 0.786 | 0.679 | 0.899 | 0.714
HARA | 0.298 | 0.235 | 0.229 | 0.257 | 0.365 | 1.31 | 1.1 | 1.05 | 0.24 | 0.172 | 0.141 | 0.889 | 0.753 | 0.36 | 0.89 | 0.735
BEN | 0.417 | 0.472 | 0.473 | 0.473 | 0.444 | 0.784 | 0.817 | 0.679 | 0.37 | 0.287 | 0.28 | 0.601 | 0.517 | 0.499 | 0.61 | 0.62
LC-2-ad | 0.365 | 0.526 | 0.473 | 0.509 | 0.399 | 1.13 | 0.9 | 0.605 | 0.293 | – | 0.228 | 1 | 0.854 | 0.939 | 0.801 | 0.656
NCI-H1299 | – | – | – | – | – | 1.03 | 1.02 | 1.06 | – | – | – | 1.11 | 1.03 | 1.12 | 1.12 | 1.1
